Laboratory results as given in patent publication US4303664A, “Novel penicillin derivatives containing a coumarin nucleus and medicines containing the same” (Teijin Limited, priority 1978, dated 1981).
In brackets after ≈: the same amount, converted by molar mass.

Columns and labels:
[1] = system: Staphylococcus aureus 209-p; test: Bactericidal test (MIC), Staphylococcus aureus 209-p; format: cell-based; settings: (1) Staphylococcus aureus 209-p
Text: (§1) Results of bactericidal tests (MIC, r/ml) on the penicillin derivatives of this invention prepared in the above examples are shown in the following table.

[2] = system: Staphylococcus aureus 1248; test: Bactericidal test (MIC), Staphylococcus aureus 1248; format: cell-based; settings: (2) Staphylococcus aureus 1248; read-out: MIC
Text: as §1

Bacillus subtilis = test: Bactericidal test (MIC), Bacillus subtilis; format: cell-based; settings: (3) Bacillus subtilis
Text: as §1

[3] = system: Salmonella typhimurium G-20; test: Bactericidal test (MIC), Salmonella typhimurium G-20; format: cell-based; settings: Salmonella enterica; (4) Salmonella typhimurium G-20
Text: as §1

[4] = system: Escherichia Coli NIHJ JC-2; test: Bactericidal test (MIC), Escherichia Coli NIHJ JC-2; format: cell-based; settings: NIHJJC2; (5) Escherichia Coli NIHJ JC-2
Text: as §1

[5] = system: Klebsiella neumoniae ATCC10031; test: Bactericidal test (MIC), Klebsiella neumoniae ATCC10031; format: cell-based; settings: (6) Klebsiella neumoniae ATCC10031; read-out: MIC
Text: as §1

Enterobactor cloacae 147 = test: Bactericidal test (MIC), Enterobactor cloacae 147; format: cell-based; settings: (7) Enterobactor cloacae 147
Text: as §1

[6] = system: Enterobacter cloacae IF012937; test: Bactericidal test (MIC), Enterobacter cloacae IF012937; format: cell-based; settings: (8) Enterobacter cloacae IF012937
Text: as §1

Morganella var. G-2 = test: Bactericidal test (MIC), Morganella var. G-2; format: cell-based; settings: VAR.G2; (9) Morganella var. G-2; read-out: MIC
Text: as §1

Rettgerella var. Tid-21 = test: Bactericidal test (MIC), Rettgerella var. Tid-21; format: cell-based; settings: (10) Rettgerella var. Tid-21; read-out: MIC
Text: as §1

Serratia G-18 = test: Bactericidal test (MIC), Serratia G-18; format: cell-based; settings: G18; (11) Serratia G-18; read-out: MIC
Text: as §1

[7] = system: Pseudomonas aeruginosa IFO-3080; test: Bactericidal test (MIC), Pseudomonas aeruginosa IFO-3080; format: cell-based; settings: IFO3080; (12) Pseudomonas aeruginosa IFO-3080; read-out: MIC
Text: as §1

[8] = system: Pseudomonas aeruginosa 0-37; test: Bactericidal test (MIC), Pseudomonas aeruginosa 0-37; format: cell-based; settings: 037; (13) Pseudomonas aeruginosa 0-37
Text: as §1

[9] = system: Pseudomonas aeruginosa Tid-53; test: Bactericidal test (MIC), Pseudomonas aeruginosa Tid-53; format: cell-based; settings: TID53; (14) Pseudomonas aeruginosa Tid-53
Text: as §1

[10] = system: Pseudomonas aeruginosa GN-315; test: Bactericidal test (MIC), Pseudomonas aeruginosa GN-315; format: cell-based; settings: GN315; (15) Pseudomonas aeruginosa GN-315
Text: as §1

[11] = system: Pseudomonas aeruginosa 130; test: Bactericidal test (MIC), Pseudomonas aeruginosa 130; format: cell-based; settings: (16) Pseudomonas aeruginosa 130
Text: as §1

[12] = Acute toxicity values [(LD50), mouse]; settings: in vivo
Text: Acute toxicity values [(LD50), mouse] of some penicillin derivatives of this invention are illustrated in the following table.

[13] = Rates of protein fixation (human serum protein); format: in vitro ADME; settings: read-out: Rate of protein fixation (converted)
Text: Rates of protein fixation (human serum protein) of the penicillin derivatives of this invention are illustrated as follows: […]

Row | Structure (SMILES) | MIC [1] [µg/mL] | MIC [2] [µg/mL] | MIC (Bacillus subtilis) [µg/mL] | MIC [3] [µg/mL] | MIC [4] [µg/mL] | MIC [5] [µg/mL] | MIC (Enterobactor cloacae 147) [µg/mL] | MIC [6] [µg/mL] | MIC (Morganella var. G-2) [µg/mL] | MIC (Rettgerella var. Tid-21) [µg/mL] | MIC (Serratia G-18) [µg/mL] | MIC [7] [µg/mL] | MIC [8] [µg/mL] | MIC [9] [µg/mL] | MIC [10] [µg/mL] | MIC [11] [µg/mL] | LD50 ([12]; Oral) [mg/kg] | LD50 ([12]; ip, Intraabdominal) [mg/kg] | fraction unbound [13]
1 | CC(=O)Oc1ccc2oc(=O)c(C(=O)N[C@@H](C(=O)N[C@@H]3C(=O)N4[C@@H]3SC(C)(C)[C@@H]4C(=O)O)c3ccccc3)cc2c1 [Example 9, D(-)-α-(6-Acetoxycoumarin-3-carbonamido)benzylpenicillin] | < 0.4 | 3.13 (≈ 5.4 µM) | < 0.4 | < 0.4 | < 0.4 | < 0.4 | 3.13 (≈ 5.4 µM) | 25 (≈ 43.1 µM) | 6.25 (≈ 10.8 µM) | 3.13 (≈ 5.4 µM) | 25 (≈ 43.1 µM) | 0.8 (≈ 1.38 µM) | 25 (≈ 43.1 µM) | 6.25 (≈ 10.8 µM) | 6.25 (≈ 10.8 µM) | < 0.4 | > 4000 | 2000 | 0.2
2 | COc1cccc2cc(C(=O)N[C@@H](C(=O)N[C@@H]3C(=O)N4[C@@H]3SC(C)(C)[C@@H]4C(=O)O)c3ccccc3)c(=O)oc12 [Example 6, D(-)-α-(8-Methoxycoumarin-3-carbonamido)benzylpenicillin] | < 0.4 | 0.8 (≈ 1.45 µM) | < 0.4 | < 0.4 | < 0.4 | 0.8 (≈ 1.45 µM) | 3.13 (≈ 5.67 µM) | 6.25 (≈ 11.3 µM) | 0.8 (≈ 1.45 µM) | 3.13 (≈ 5.67 µM) | 6.25 (≈ 11.3 µM) | 0.8 (≈ 1.45 µM) | 12.5 (≈ 22.7 µM) | 6.25 (≈ 11.3 µM) | 3.13 (≈ 5.67 µM) | 1.56 (≈ 2.83 µM) | > 4000 | 2000 | 0.42
